In patent publication US5217961A, “Condensed quinoline system N-glycosides” (Mect Corporation, priority 1988, dated 1993):

Assays:
[1] = J. Med. Chem. vol.17, 922 (1974); cited from earlier work
[2] = tested on: KB cells; assay: Function for inhibiting multiplication of KB cell (in vitro test); assay type: cell-based, human; conditions: compound added day 1, cells counted day 4, effective when ED50 < 4 μg/ml, 4320 min
Procedure: KB cells, carcinomatous cell tumors, were transferred to in vitro floatation incubator systems, and added respectively with compounds of Examples 1 to 33. The results of cultivation added with these compounds were compared with the results of the control which was not added with any compound.
Cell used: KB Cell (Originating from human mouth epidermal cancer)
Culture medium: Eagles minimal essential medium (MEM) supplemented with 10% calf serum
Cultivation: 37° C. carbon dioxide gas incubator (5% CO2)
Day 0: KB cells were diluted in the culture medium to adjust the KB cell density to 2×10^4 /ml. Three ml of the cell suspension was inoculated in each of 60 mm plastic dishes. Two dishes per standard dosage were used.
Day 1: Test compound was added to the medium so that the final concentrations were set to 100, 30, 10, 3 and 1 μg/ml.
Day 4: Cells were scraped off from the dish using trypsin, and the cell number was countered using a Corter counter.
In generally accordance with the stipulations set forth by the National Cancer Institute (NCI) U.S.A., the concentration of compound necessary for exerting 50% growth inhibition (ED50) compared to the contral was determined.

[3] = tested on: P-388; assay: Effect on prolongation of life span in cancer implanted mouse (P-388); assay type: in vivo, CDF mouse; conditions: day 1 and day 5, P-388 i.p.; for cure (mice cured / mice in group): 6 mice/group; for Ratio of Life Prolongation (%) (T/C %): effective when T/C >= 120%
Procedure: Animal used: CDF mouse (6 mice/group)
Number of implanted cells: 10^6 cells/mouse
Day of administration: Day 1 and Day 5
Dosage: LD50 or 400 mg/kg/day at the maximum

COc1cc(NS(C)(=O)=O)ccc1Nc1c2ccccc2nc2ccccc12 [Amsacrine, N-[4-(9-acridylamino)-3-methoxyphenyl)methanesulfonamide]
carcinostatic function [1]: highest carcinostatic function

COc1cc(NS(C)(=O)=O)ccc1Nc1c2ccccc2nc2c1[nH]c1ccc(NC3OC(COC(C)=O)C(OC(C)=O)C(OC(C)=O)C3OC(C)=O)cc12 (stereo not shown) [Compound 23, N-{4-[(7-(2,3,4,6-tetra-O-acetylglycosyl-1-amino)-10H-indolo[3,2-b]quinoline-11-yl)amino]-3-methoxyphenyl} methanesulfonamide]
Conc. (ED50), concentration necessary for exerting 50% growth inhibition of KB cells [2]: < 0.3 µg/mL | cure (mice cured / mice in group) ([3]; 12.5 mg/kg): 2/6 | Ratio of Life Prolongation (%) (T/C %) ([3]; 12.5 mg/kg): 300% | cure (mice cured / mice in group) ([3]; 25 mg/kg): 1/6 | Ratio of Life Prolongation (%) (T/C %) ([3]; 25 mg/kg): 148% | Ratio of Life Prolongation (%) (T/C %) ([3]; 50 mg/kg): 58%
